From US6632455B2, “Molecular dispersion composition with enhanced bioavailability” (Schering Corporation, priority 1997, dated 2003)

Columns and labels:
[1] = Bioavailability assay: single oral dose, plasma analysed by HPLC-UV, AUC compared with amorphous suspension control; assay type: in vivo, male cynomolgus monkeys; details: for bioavailability (in words): observed while developing a solid dosage form with conventional excipients
Protocol: The formulation to be tested was administered orally to male cynomolgus monkeys in a single dose (PO, single). The number of monkeys for each test is indicated by the letter “N” followed by an equal sign and a number. Thus, “(N=6)” means the formulation was administered to six monkeys. The total amount of the compound of Formula I administered was 100 or 200 mg given as one capsule or tablet containing 100 or 200 mg each. The administered dose (tablet, capsule or control suspension) was slowly washed down with 10 mL of water. Blood samples were taken at 15, 30 minutes, 1 hour, 2 hours, 4 hours, 6 hours, 8 hours, 12 hours, 24 hours, and 48 hours in heparinized syringes. Plasma for analysis was obtained by centrifugation at 4° C. Plasma samples (one per time point) were split and stored at −20° C. until assayed as described below.
The monkeys to be tested were fed two biscuits in the morning on the day of drug administration.
Monkeys that were fasted were not given any food overnight before drug administration and were fed normally after the 4-hour time point after drug administration.
Samples of monkey plasma were collected at selected time intervals. The plasma was analyzed by a high pressure liquid chromatograph (HPLC) procedure with ultraviolet detection. AUC (area under the plasma concentration-time curve, […]) values were calculated using standard procedures to determine the relative bioavailability of the compound in the tested formulations. The larger the AUC value, the greater the bioavailability.
A suspension of the compound of Formula I was used as a control. The control was made by suspending sufficient compound of Formula I in methyl cellulose solution to provide a dose of 30 mg/kg of body weight of monkey. The 0.4% methyl cellulose solution was made by adding 4 grams of methyl cellulose to one liter of distilled water and heating at about 80° C. with stirring for about 1½ hours.
The results of the bioavailability assay are given in terms of percent-relative bioavailability (AUC ratio) compared to amorphous suspension of Compound I in 0.4 methyl cellulose solution.

abnormal growth of cells = details: cited from earlier work
[2] = biological target: farnesyl protein transferase (Homo sapiens, UniProt P49356); details: cited from earlier work
[3] = fed monkeys, suspension of crystalline form vs suspension of amorphous form
[4] = suspension of crystalline form vs suspension of amorphous form, feeding state not printed in the sentence (fasted implied by b145)

With NC(=O)N1CCC(CC(=O)N2CCC(C3c4ncc(Br)cc4CCc4cc(Cl)cc(Br)c43)CC2)CC1 (single isomer, unassigned; (+)) [Compound I, (+)-4-[4-(8-chloro-3,10-dibromo-6,11-dihydro-5H-benzo [5,6cyclohepta[1,2-b]pyridin-11-yl)-1-piperidinyl]-2-oxoethyl]-1-piperidinecarboxamide] the “relative bioavailability, % of the AUC of the amorphous suspension” value [1, 3] was 3.6%, the “relative bioavailability, % of the C max of the amorphous suspension” value [1, 3] was 5.2% and the “bioavailability (in words)” value ([1]; listed as compound of Formula I) was “extremely poor”. For the same compound, the “bioavailability (in words)” value ([1]; listed as crystalline Compound I) was “very poor”, the “relative bioavailability, % of the AUC of the amorphous suspension” value [1, 4] was 1.3% and the “relative bioavailability, % of the Cmax of the amorphous suspension” value [1, 4] was 2.7%. For the same compound, the “activity for inhibiting the abnormal growth of cells (in words)” value (abnormal growth of cells) was “potent activity” and the “activity for inhibiting farnesyl protein transferase (in words)” value [2] was “potent activity”.
